Earlier results as cited in patent publication US9682081B2, “Pharmaceutical gastro-retentive solid oral dosage form of nilotinib” (SUN PHARMACEUTICAL INDUSTRIES LIMITED, priority 2013, dated 2017).

Columns and labels:
[1] = 25° C., pH 4.5 and higher
[2] = Class IV means low/moderate aqueous solubility and low permeability

solubility in aqueous solutions [1]: practically insoluble | Biopharmaceutical Classification System (BCS) class [2]: Class IV
Compound: Cc1cn(-c2cc(NC(=O)c3ccc(C)c(Nc4nccc(-c5cccnc5)n4)c3)cc(C(F)(F)F)c2)cn1 [Nilotinib, 4-methyl-N-[3-(4-methyl-1H-imidazol-1-yl)-5-(trifluoromethyl)phenyl]-3-[[4-(3-pyridinyl)-2-pyrimidinyl]amino]-benzamide]
